The data set deals with Multidrug resistance-associated protein 1 (Homo sapiens, UniProt P33527). As to the kind of experiment: TP_TRANSPORTER: growth inhibition in hMRP1-expressing tobacco. Conditions: nicotiana tabacum, in vivo. Type of data set: functional, organism-based, (cultivar) Samsun NN.
Chain of Multidrug resistance-associated protein 1 (P33527 whole entry): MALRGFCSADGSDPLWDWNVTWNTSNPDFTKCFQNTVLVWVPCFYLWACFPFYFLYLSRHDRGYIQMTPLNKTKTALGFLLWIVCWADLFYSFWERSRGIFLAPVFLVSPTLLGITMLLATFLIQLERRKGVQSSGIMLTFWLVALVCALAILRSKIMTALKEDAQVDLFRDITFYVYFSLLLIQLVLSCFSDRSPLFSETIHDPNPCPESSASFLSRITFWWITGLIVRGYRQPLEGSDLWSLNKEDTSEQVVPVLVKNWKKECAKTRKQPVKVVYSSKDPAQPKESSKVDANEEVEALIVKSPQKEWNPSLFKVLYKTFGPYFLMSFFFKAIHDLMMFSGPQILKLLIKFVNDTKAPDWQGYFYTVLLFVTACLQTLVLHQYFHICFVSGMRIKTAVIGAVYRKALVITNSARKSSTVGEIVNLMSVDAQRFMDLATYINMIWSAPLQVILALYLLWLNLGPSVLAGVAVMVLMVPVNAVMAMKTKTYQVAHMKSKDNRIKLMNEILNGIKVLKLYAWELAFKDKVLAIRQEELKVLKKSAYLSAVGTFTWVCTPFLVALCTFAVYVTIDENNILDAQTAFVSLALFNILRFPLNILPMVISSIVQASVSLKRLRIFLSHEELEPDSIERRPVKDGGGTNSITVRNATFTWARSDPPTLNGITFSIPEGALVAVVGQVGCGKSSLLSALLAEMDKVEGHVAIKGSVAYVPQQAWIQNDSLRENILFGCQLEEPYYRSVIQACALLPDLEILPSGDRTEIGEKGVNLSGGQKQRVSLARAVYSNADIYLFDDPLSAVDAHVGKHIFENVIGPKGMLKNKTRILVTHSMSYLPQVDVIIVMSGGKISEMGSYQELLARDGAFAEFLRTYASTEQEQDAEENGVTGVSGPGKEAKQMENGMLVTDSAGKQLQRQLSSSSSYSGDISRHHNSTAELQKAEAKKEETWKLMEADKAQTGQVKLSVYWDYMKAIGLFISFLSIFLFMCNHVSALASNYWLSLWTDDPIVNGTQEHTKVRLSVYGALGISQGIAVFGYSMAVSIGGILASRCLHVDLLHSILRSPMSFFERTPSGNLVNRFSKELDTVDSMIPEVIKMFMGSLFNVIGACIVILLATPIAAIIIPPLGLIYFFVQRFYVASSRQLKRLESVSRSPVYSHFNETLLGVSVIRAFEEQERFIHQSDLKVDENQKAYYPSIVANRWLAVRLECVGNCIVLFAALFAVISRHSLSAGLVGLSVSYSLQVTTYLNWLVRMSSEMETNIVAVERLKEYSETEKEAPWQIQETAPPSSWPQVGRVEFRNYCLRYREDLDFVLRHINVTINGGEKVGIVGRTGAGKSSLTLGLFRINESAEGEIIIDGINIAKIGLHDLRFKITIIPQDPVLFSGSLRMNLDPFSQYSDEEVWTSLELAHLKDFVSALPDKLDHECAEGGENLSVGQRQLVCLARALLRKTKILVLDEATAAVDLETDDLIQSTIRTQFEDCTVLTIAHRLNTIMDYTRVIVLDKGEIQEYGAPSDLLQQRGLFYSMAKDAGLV

CADMIUM: the Activity result is “substrate []”.

The record behind these values is ChEMBL document CHEMBL2073829, “Heterologous expression of a mammalian ABC transporter in plant and its application to phytoremediation” (Plant Mol Biol, 2006).
